Test results reported in patent US20220146519A1, “INTEGRIN ALPHA V BETA 3 TARGETING PROBE FOR DIAGNOSING RETINOCHOROIDAL NEOVASCULAR DISEASES AND PREPARATION METHOD THEREFOR” (SEOUL NATIONAL UNIVERSITY HOSPITAL, priority 2019, published 2022).
Entries after “also recorded” stand apart in the source; their conditions may differ.

What was measured:
integrin αvβ3 [1] = test: Fluorescence staining of vessels in retinal and choroidal flatmounts using FITC-labeled RGD peptide; design: species or system mouse; conditions: for staining of choroidal neovascularization lesions (laser-treated areas): ex vivo choroidal flatmount, 7 days after laser-induced choroidal neovascularization, C57BL/6 mice
integrin αvβ3, sequence (P43406 31-885 limits assumed): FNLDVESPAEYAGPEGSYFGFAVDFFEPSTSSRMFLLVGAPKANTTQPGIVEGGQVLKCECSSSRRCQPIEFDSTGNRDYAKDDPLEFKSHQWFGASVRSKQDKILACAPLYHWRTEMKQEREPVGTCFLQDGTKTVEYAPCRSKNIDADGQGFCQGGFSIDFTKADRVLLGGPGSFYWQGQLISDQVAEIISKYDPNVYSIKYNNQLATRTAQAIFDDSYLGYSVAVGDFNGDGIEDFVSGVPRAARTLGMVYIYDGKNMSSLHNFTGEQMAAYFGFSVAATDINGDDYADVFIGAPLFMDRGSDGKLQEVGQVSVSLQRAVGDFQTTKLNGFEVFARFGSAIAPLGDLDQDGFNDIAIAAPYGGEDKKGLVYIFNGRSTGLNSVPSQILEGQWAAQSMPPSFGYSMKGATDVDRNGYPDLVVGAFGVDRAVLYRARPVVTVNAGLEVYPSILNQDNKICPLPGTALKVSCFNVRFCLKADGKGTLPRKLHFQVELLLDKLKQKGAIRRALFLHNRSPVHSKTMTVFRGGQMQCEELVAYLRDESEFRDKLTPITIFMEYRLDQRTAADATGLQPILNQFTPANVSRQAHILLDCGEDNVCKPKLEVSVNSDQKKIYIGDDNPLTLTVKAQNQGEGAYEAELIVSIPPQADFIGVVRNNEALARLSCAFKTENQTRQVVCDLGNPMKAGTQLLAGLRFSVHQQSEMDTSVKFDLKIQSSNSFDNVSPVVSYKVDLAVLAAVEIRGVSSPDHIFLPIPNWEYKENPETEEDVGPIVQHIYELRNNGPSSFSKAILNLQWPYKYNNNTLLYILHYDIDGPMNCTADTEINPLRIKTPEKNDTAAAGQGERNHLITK
integrin αvβ3, sequence (P43406 887-1044 partner limits assumed): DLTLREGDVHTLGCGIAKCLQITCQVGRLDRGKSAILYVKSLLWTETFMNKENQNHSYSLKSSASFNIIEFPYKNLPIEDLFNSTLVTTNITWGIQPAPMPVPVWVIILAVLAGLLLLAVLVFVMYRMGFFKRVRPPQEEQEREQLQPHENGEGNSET
integrin αvβ3, sequence (O54890 26-787, further chain): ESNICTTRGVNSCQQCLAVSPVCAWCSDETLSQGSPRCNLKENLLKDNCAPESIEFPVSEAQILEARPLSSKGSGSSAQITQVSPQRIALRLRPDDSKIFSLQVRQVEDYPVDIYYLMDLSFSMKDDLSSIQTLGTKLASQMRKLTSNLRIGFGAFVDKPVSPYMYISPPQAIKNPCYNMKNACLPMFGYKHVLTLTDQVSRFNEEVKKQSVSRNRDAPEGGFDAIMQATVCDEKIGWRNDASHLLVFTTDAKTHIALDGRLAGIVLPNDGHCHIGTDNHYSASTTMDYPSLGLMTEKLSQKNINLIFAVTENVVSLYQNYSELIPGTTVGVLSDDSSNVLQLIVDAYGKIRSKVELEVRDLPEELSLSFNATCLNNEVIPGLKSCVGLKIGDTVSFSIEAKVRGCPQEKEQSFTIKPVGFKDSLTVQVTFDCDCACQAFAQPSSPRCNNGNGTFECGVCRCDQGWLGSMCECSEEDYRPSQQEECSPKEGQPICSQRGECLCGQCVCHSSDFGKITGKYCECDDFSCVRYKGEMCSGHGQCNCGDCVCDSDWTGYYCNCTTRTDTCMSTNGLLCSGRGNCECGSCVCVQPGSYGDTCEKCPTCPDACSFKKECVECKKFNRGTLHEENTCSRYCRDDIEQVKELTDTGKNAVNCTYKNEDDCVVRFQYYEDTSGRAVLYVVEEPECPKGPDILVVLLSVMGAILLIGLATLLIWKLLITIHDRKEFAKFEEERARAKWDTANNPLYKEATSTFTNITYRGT
Method: After intravenous anesthesia using a 1:1 mixture of 100 mg/mL ketamine and 20 mg/mL xylazine and pupillary dilatation using 5.0% phenylephrine and 0.8% tropicamide, C57BL/6 mice were placed on the Mayo stand (Coherent PC-920 Argon Ion Laser System; Coherent Medical Laser, Santa Clara, Calif.). Choroidal neovascularization was induced using 512-nm argon laser photocoagulation, with 100 urn of spot size and 100 mW of power for 0.1 s in the right eye. Five lesions of about 2-3 disc diameters were generated from the optic disc. The formation of bubbles upon laser delivery can be considered sufficient damage to induce rupture of Bruch's membrane and choroidal neovascularization. When subretinal hemorrhage occurred after the laser treatment, the mice were excluded from the experiment.
Ten eyes were prepared as choroidal flatmounts. For the flatmounts, mice were anesthetized at days 7 or 14 and eyes were enucleated and fixed with 4% paraformaldehyde for 30 min at 4° C. The anterior segment and retina were removed from the eyecup, and four radial incisions were made. The remaining retinal pigment epithelium (RPE)-choroid-sclera complex was flatmounted and coverslipped. Flatmounts were examined with a scanning laser confocal microscope (LSM710; Carl Zeiss, Oberkochen, Germany). […]
Fluorescence staining with FITC-D-[c(RGDfK)]^2 was performed as follows: • (1) the retinal and choroidal flatmounts were washed with PBS and incubated with FITC-D-[c(RGDfK)]2 for 30 minutes; • (2) the slides were washed with PBS several times, counterstained with 4′,6-diamidino-2-phenylindole (DAPI), and mounted with ProLong Gold anti-fade reagent (Life Technologies, Carlsbad, Calif., USA); • (3) and after staining, the flatmounts were mounted with the vitreous side up on glass slides and visualized on a confocal microscope (LSM710; Carl Zeiss, Oberkochen, Germany).

integrin αvβ3 [2] = test: Specificity of FITC-D-[c(RGDfK)]2 staining evaluated with excess cRGD peptides; type: binding, mouse; conditions: 10 nM probe; 2-hour incubation with 200 nM (20-fold) cRGD before staining; choroidal flatmount
Method: Additionally, the specificity of FITC-D-[c(RGDfK)]2 staining was evaluated by using an excess of cRGD peptides. For this experiment, one mouse with identical laser-induced choroidal neovascularization in both eyes was sacrificed. One eye of the mouse was stained with the staining method described above using 10 nM of FITCD-[c(RGDfK)]2. The other eye was stained with the staining method described above plus a 2-hour incubation with excess cRGD peptides (for example, 20-fold molar concentration of the FITC-conjugated cRGD dimer, i.e., 200 nM) prior to the fluorescence staining. In this staining, the present inventors used an integrin αvβ3 antibody to investigate if the staining with the integrin αvβ3 antibody co-localized with that of the FITC-conjugated cRGD dimer.

FITC-D-[c(RGDfK)]2 [FITC-labeled cyclic RGD peptide]
staining of choroidal neovascularization lesions (laser-treated areas) (integrin αvβ3 [1]): intense immunofluorescence staining; also recorded: allowed the visualization of choroidal neovascularization at laser-treated areas
staining of choroidal neovascularization lesions (laser-treated areas) (integrin αvβ3 [1]; listed as FITC-labeled RGD peptide): laser-treated lesion stained with FITC-labeled RGD peptide corresponded to that stained with lectin
staining of normal vessels in the retina (integrin αvβ3 [1]; ex vivo untreated retina flatmount, lectin-positive normal vessels): barely stained
fluorescence of probe after pre-incubation with excess cRGD (integrin αvβ3 [2]): remarkably reduced
